The inhibition is the relative decrease from the control value, in per cent. The Ki is a measure of affinity in units of concentration, obtained from inhibition or displacement.

The source made the active and inactive calls. The calls are words filed in the database; no cut-off is given here.

T4 sequence (P41595 whole entry): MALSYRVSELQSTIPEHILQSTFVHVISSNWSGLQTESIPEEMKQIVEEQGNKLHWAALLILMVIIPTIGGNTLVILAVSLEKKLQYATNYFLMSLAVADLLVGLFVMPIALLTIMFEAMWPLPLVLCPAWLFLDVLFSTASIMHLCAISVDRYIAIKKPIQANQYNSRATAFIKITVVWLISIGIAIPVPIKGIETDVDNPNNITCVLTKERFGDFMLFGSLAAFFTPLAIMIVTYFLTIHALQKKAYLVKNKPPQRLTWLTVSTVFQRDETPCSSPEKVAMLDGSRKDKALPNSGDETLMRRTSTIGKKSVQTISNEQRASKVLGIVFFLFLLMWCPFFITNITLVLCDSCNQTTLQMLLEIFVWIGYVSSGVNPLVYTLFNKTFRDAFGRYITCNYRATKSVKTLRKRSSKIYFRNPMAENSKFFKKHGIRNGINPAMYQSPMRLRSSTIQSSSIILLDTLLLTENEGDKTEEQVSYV
Chain of Adenosine receptor A2a (P29274 whole entry): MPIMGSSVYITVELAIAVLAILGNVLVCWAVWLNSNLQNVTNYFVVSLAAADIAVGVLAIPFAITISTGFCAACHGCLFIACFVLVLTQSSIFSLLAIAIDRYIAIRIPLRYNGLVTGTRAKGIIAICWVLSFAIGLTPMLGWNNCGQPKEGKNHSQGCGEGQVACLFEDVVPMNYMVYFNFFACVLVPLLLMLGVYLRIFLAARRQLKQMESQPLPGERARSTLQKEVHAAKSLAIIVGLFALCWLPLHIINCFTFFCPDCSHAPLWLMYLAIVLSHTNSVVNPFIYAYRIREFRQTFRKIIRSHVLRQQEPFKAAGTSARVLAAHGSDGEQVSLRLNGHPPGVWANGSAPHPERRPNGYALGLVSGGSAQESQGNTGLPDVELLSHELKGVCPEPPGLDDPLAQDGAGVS
Chain of 5-hydroxytryptamine receptor 6 (Homo sapiens) (P50406 whole entry): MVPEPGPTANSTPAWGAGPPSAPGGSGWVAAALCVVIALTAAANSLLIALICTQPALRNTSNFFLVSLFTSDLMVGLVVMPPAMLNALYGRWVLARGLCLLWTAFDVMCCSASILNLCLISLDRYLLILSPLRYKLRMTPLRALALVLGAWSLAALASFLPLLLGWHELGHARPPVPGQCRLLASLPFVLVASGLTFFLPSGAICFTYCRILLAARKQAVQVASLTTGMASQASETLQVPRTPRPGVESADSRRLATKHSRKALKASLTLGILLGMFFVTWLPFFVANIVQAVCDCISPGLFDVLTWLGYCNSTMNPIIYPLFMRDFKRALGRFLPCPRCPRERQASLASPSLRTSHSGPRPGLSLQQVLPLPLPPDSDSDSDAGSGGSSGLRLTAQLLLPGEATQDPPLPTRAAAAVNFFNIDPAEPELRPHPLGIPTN

In one assay the target is T1, 5-hydroxytryptamine receptor 1A (Homo sapiens) (UniProt P08908).
T1 sequence (whole entry): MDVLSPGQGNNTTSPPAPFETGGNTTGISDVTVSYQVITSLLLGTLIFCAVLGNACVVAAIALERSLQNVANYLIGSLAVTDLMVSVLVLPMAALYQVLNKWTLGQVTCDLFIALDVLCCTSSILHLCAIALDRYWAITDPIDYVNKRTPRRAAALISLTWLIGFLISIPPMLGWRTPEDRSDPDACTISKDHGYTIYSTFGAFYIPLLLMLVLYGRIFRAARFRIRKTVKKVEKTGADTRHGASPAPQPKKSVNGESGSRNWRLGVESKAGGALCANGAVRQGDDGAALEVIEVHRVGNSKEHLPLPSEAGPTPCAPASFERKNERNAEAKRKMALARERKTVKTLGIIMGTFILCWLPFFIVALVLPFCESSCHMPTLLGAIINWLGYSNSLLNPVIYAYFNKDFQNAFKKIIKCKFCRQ
Put plainly: Displacement of [3H]WAY100635 from human 5-HT1AR expressed in CHO cell membranes at 10 uM incubated for 90 mins under dark condition by microbeta scintillation counting method relative to control.
Details: not given
For orientation: Loss of bound radioactivity is the signal in a displacement assay; it reports binding, not function.
With `CN(C)c1nc(Cl)nc2c1ncn2[C@H]1[C@H](O)[C@H](O)[C@]2(C(=O)O)C[C@H]12`, the inhibition is < 50%.

For a further assay, the target named is 5-hydroxytryptamine receptor 1B (Homo sapiens) (UniProt P28222). In words: Displacement of [3H]5-CT from human 5-HT1BR expressed in HEK cell membranes at 10 uM incubated for 90 mins under dark condition by microbeta scintillation counting method relative to control. Conditions: HEK293.
Chain of 5-hydroxytryptamine receptor 1B (Homo sapiens) (P28222 whole entry): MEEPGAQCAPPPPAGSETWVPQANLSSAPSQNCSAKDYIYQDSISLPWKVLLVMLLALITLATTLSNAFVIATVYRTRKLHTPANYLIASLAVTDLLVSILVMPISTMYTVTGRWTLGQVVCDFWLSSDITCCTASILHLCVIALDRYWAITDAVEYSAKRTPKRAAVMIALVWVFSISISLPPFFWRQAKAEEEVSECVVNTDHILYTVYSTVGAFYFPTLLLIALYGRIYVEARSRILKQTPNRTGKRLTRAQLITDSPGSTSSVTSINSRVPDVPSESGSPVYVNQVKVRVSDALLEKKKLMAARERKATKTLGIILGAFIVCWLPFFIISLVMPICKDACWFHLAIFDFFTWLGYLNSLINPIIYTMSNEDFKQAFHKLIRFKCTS
In the case of `CN(C)c1nc(Cl)nc2c1ncn2[C@H]1[C@H](O)[C@H](O)[C@]2(C(=O)O)C[C@H]12`, the inhibition is < 50%.

In another assay the target is 5-hydroxytryptamine receptor 1D (Homo sapiens) (UniProt P28221). Put plainly: Displacement of [3H]5-CT from human 5-HT1D receptor expressed in HEK-T cell membranes at 10 uM incubated for 90 mins under dark condition by microbeta scintillation counting method relative to control.
Chain of 5-hydroxytryptamine receptor 1D (Homo sapiens) (P28221 whole entry): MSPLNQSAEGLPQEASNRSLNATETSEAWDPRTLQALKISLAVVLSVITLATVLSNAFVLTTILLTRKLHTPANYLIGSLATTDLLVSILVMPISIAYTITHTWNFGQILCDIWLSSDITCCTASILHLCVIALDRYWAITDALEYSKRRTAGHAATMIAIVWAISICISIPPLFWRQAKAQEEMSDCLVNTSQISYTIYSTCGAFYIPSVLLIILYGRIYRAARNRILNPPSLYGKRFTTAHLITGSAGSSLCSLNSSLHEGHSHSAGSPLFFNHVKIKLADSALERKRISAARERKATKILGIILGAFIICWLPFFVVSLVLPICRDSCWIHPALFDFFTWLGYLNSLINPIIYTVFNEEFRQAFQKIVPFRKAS
Details: not given
As to `CN(C)c1nc(Cl)nc2c1ncn2[C@H]1[C@H](O)[C@H](O)[C@]2(C(=O)O)C[C@H]12`, the inhibition is < 50%.

A further assay deals with 5-hydroxytryptamine receptor 1E (Homo sapiens) (UniProt P28566). Put plainly: Displacement of [3H]5-HT from human 5-HT1E receptor expressed in HEK cell membranes at 10 uM incubated for 90 mins under dark condition by microbeta scintillation counting method relative to control. Conditions: HEK293.
Chain of 5-hydroxytryptamine receptor 1E (Homo sapiens) (P28566 whole entry): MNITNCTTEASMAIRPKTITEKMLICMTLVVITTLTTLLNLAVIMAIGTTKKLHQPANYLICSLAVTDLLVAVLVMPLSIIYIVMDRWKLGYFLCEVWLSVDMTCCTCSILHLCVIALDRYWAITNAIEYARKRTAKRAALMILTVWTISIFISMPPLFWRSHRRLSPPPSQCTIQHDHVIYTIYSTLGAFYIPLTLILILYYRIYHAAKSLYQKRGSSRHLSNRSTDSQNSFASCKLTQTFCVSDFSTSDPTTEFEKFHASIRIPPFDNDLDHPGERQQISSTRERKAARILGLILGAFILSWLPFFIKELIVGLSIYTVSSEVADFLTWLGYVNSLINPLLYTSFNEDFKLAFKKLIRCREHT
For `CN(C)c1nc(Cl)nc2c1ncn2[C@H]1[C@H](O)[C@H](O)[C@]2(C(=O)O)C[C@H]12`, the inhibition was < 50%.

Another assay deals with 5-hydroxytryptamine receptor 4 (Homo sapiens) (UniProt Q13639). Put plainly: Displacement of [3H]GR113808 from human 5-HT4 receptor at 10 uM incubated for 90 mins under dark condition by microbeta scintillation counting method relative to control.
Chain of 5-hydroxytryptamine receptor 4 (Homo sapiens) (Q13639 whole entry): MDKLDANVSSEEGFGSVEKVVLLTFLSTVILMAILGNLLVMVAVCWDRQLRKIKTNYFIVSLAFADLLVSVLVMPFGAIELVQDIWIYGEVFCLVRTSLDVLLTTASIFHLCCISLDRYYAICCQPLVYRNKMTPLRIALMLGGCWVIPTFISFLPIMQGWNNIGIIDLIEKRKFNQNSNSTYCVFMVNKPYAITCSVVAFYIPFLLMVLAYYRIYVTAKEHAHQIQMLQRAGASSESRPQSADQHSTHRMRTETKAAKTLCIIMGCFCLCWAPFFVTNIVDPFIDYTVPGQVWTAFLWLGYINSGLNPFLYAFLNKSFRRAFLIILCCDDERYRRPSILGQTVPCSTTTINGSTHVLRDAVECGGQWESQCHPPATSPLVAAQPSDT
Details: not given
For `CN(C)c1nc(Cl)nc2c1ncn2[C@H]1[C@H](O)[C@H](O)[C@]2(C(=O)O)C[C@H]12`, the inhibition was < 50%.

Another assay addresses 5-hydroxytryptamine receptor 6 (Homo sapiens) (UniProt P50406). Put plainly: Displacement of [3H]LSD from human 5-HT6 receptor expressed in HEK cell membranes at 10 uM incubated for 90 mins under dark condition by microbeta scintillation counting method relative to control. Conditions: HEK293.
For `CN(C)c1nc(Cl)nc2c1ncn2[C@H]1[C@H](O)[C@H](O)[C@]2(C(=O)O)C[C@H]12`, the inhibition is < 50%.

For a further assay, the target named is 5-hydroxytryptamine receptor 7 (Homo sapiens) (UniProt P34969). In words: Displacement of [3H]LSD from human 5-HT7A receptor expressed in HEK cell membranes at 10 uM incubated for 90 mins under dark condition by microbeta scintillation counting method relative to control. The settings on record: HEK293.
Chain of 5-hydroxytryptamine receptor 7 (Homo sapiens) (P34969 whole entry): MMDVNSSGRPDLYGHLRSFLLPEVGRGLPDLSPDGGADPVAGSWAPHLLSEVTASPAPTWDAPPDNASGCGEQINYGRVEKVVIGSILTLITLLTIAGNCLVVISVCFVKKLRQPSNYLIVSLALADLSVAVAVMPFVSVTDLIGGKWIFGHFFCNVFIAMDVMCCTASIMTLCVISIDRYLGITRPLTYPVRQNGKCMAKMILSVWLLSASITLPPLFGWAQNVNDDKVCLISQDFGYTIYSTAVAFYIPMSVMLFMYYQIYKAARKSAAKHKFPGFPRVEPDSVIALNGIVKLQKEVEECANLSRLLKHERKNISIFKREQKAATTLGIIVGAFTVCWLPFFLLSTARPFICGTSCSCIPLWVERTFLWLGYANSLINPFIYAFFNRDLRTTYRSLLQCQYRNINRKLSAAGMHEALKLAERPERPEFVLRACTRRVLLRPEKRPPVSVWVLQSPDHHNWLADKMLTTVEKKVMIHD
For the molecule `CN(C)c1nc(Cl)nc2c1ncn2[C@H]1[C@H](O)[C@H](O)[C@]2(C(=O)O)C[C@H]12`, the inhibition was < 50%.

For the next assay, the target named is T2, 5-hydroxytryptamine receptor 3A (Homo sapiens) (UniProt P46098).
T2 sequence (whole entry): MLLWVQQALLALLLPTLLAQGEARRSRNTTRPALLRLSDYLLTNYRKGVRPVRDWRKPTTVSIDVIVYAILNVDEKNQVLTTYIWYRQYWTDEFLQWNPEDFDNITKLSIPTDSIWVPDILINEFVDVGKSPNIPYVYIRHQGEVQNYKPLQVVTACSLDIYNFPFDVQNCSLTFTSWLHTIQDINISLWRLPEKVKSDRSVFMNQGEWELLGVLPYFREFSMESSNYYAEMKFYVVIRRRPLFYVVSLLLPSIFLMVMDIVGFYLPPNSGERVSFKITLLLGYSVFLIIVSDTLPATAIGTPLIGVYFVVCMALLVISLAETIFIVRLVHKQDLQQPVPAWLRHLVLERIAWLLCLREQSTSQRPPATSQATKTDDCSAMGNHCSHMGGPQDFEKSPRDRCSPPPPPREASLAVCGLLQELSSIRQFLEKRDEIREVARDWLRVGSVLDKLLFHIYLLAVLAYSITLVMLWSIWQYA
In words: Displacement of [3H]GR65630 from human 5-HT3 receptor expressed in HEK-T cell membranes at 10 uM incubated for 90 mins under dark condition by microbeta scintillation counting method relative to control.
Details: not given
Regarding `CN(C)c1nc(Cl)nc2c1ncn2[C@H]1[C@H](O)[C@H](O)[C@]2(C(=O)O)C[C@H]12`, the inhibition was < 50%.

The target of a further assay is 5-hydroxytryptamine receptor 5A (Homo sapiens) (UniProt P47898). In words: Displacement of [3H]LSD from human 5-HT5A receptor expressed in Flp-In-CHO cell membranes incubated for 90 mins under dark condition by microbeta scintillation counting method relative to control. Also on record: concentration or dose not given beside the values.
Chain of 5-hydroxytryptamine receptor 5A (Homo sapiens) (P47898 whole entry): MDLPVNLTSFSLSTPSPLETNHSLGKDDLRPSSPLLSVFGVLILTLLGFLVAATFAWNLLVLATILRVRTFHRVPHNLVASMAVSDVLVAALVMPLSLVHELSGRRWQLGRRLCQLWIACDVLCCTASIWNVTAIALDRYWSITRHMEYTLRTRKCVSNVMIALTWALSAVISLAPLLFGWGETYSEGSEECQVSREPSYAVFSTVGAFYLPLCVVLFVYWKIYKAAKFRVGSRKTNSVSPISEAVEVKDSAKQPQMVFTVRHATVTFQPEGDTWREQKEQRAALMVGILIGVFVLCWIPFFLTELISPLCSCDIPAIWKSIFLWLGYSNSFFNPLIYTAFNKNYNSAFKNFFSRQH
Details: not given
In the case of `CN(C)c1nc(Cl)nc2c1ncn2[C@H]1[C@H](O)[C@H](O)[C@]2(C(=O)O)C[C@H]12`, the inhibition entry was “Active”.

In a further assay the target is T3, 5-hydroxytryptamine receptor 2A (Homo sapiens, UniProt P28223). Put plainly: Displacement of [3H]ketanserin from human 5-HT2A receptor expressed in HEK-T cell membranes at 10 uM incubated for 90 mins under dark condition by microbeta scintillation counting method relative to control.
T3 sequence (P28223 whole entry): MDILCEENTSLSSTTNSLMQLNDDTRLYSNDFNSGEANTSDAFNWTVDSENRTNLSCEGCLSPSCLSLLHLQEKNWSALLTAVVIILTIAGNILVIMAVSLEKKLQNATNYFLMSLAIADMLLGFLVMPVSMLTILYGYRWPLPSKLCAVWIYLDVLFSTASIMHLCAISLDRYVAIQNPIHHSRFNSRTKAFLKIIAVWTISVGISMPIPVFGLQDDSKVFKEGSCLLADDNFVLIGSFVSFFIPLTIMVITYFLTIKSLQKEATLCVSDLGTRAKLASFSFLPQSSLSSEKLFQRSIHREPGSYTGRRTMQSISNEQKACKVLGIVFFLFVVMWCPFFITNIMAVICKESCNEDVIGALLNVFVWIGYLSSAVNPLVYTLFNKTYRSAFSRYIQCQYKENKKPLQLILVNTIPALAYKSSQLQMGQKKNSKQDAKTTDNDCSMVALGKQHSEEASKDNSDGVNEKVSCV
Details: not given
Turning to `CN(C)c1nc(Cl)nc2c1ncn2[C@H]1[C@H](O)[C@H](O)[C@]2(C(=O)O)C[C@H]12`, the inhibition is < 10%.

The next assay addresses T4, 5-hydroxytryptamine receptor 2B (Homo sapiens, UniProt P41595). Put plainly: biochemical. The class given is cell-based, HEK293.
Details: not given
`CN(C)c1nc(Cl)nc2c1ncn2[C@H]1[C@H](O)[C@H](O)[C@]2(C(=O)O)C[C@H]12` yielded a Ki of 4.7 µM.

The target of a further assay is T5, 5-hydroxytryptamine receptor 2C (Homo sapiens, UniProt P28335).
T5 sequence (P28335 whole entry): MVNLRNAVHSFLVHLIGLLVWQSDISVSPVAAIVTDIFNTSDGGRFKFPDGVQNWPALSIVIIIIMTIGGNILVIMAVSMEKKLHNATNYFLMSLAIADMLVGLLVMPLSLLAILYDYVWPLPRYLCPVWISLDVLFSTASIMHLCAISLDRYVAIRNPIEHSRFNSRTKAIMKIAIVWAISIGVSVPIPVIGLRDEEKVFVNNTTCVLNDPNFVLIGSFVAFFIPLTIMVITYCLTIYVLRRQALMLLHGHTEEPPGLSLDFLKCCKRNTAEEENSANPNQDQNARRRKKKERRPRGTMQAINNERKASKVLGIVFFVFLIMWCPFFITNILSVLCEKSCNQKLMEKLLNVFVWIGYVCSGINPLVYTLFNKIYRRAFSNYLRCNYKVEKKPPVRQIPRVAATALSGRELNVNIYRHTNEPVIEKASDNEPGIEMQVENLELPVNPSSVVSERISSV
In words: Displacement of [3H]mesulergine from human 5-HT2CR expressed in Flp-In HEK cell membranes incubated for 90 mins under dark condition by microbeta scintillation counting method. Details: species or system HEK293.
Details: not given
`CN(C)c1nc(Cl)nc2c1ncn2[C@H]1[C@H](O)[C@H](O)[C@]2(C(=O)O)C[C@H]12` yielded a Ki of 8 µM.

The next assay has as its target T6, 5-hydroxytryptamine receptor 2C (Homo sapiens) (UniProt P28335).
T6 sequence (whole entry): T5 sequence (P28335 whole entry)
In words: Displacement of [3H]mesulergine from human 5-HT2CR expressed in Flp-In HEK cell membranes at 10 uM incubated for 90 mins under dark condition by microbeta scintillation counting method relative to control. Conditions: HEK293.
In the case of `CN(C)c1nc(Cl)nc2c1ncn2[C@H]1[C@H](O)[C@H](O)[C@]2(C(=O)O)C[C@H]12`, the inhibition is > 50%.

Another assay has as its target Adenosine receptor A2a (Homo sapiens, UniProt P29274). Put plainly: Displacement of [3 H]2-[p-(2-carboxyethyl)phenyl-ethylamino]-5'-N-ethylcarboxamidoadenosine from recombinant human adenosine receptor A2A expressed in HEK293 cell membranes at 10 uM after 60 mins by liquid scintillation counting method relative to control.
Details: not given
On to `CN(C)c1nc(Cl)nc2c1ncn2[C@H]1[C@H](O)[C@H](O)[C@]2(C(=O)O)C[C@H]12`, for which the inhibition is < 10%.

A further assay has as its target T7, Adenosine receptor A3 (Homo sapiens, UniProt P0DMS8).
T7 sequence (P0DMS8 whole entry): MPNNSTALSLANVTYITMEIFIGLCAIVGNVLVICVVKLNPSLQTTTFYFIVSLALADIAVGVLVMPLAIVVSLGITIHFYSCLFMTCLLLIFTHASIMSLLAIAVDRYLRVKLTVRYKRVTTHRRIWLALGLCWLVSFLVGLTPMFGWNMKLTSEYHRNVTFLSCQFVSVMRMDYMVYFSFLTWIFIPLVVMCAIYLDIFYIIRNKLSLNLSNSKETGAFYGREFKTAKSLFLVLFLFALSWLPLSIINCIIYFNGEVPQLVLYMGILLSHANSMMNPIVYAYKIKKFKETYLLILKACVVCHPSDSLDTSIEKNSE
Put plainly: Displacement of [125l]N 6-(4-amino-3-iodobenzyl)adenosine-5'-N-methyluronamide from recombinant human A3AR expressed in CHO cell membranes after 60 mins by gamma counting method.
Details: not given
Regarding `CN(C)c1nc(Cl)nc2c1ncn2[C@H]1[C@H](O)[C@H](O)[C@]2(C(=O)O)C[C@H]12`, the Ki is 1080 nM.

The target in a further assay is T3, 5-hydroxytryptamine receptor 2A. In words: Displacement of [3H]ketanserin from human 5-HT2A receptor expressed in HEK-T cell membranes incubated for 90 mins under dark condition by microbeta scintillation counting method.
Details: not given
With `CN(C)c1nc(Cl)nc2c1ncn2[C@H]1[C@H](O)[C@H](O)[C@]2(C(=O)O)C[C@H]12`, the Ki is > 10 µM.

A further assay addresses T4, 5-hydroxytryptamine receptor 2B.
Assay: not given
The settings on record: HEK293, at 10 µM.
On to `CN(C)c1nc(Cl)nc2c1ncn2[C@H]1[C@H](O)[C@H](O)[C@]2(C(=O)O)C[C@H]12`, for which the inhibition was > 50%.

Values taken from ChEMBL document CHEMBL3862033 (J Med Chem, 2016).
